Source: patent US6596707B2, “Monovalent saccharides and uses thereof” (priority 2001, dated 2003)

How the values were obtained:
[1] = target: Shiga-like toxin II (SLT II) (Escherichia phage 933W, UniProt P09386); type: cell-based, E. coli O157:H7
[2] = target: Shiga-like toxin I (SLT I) (Bacteriophage H30, UniProt P69178)
[3] = Pharmacokinetics of globotriose in mice after IV or oral administration
[4] = Toxicity of globotriose administered to mice (previous pharmacokinetic studies)

Shiga-like toxin I (SLT I), sequence (P69178 whole entry, looked up): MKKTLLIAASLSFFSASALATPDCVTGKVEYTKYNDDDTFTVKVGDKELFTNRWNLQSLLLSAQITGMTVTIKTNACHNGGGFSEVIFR
Shiga-like toxin II (SLT II), sequence (P09386 whole entry, looked up): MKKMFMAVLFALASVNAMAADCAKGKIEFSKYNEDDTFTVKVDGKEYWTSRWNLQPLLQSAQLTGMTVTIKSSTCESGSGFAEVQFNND

## OC[C@H]1O[C@H](O[C@@H]2[C@H](O)[C@@H](O)[C@H](O[C@H]3[C@H](O)[C@@H](O)C(O)O[C@@H]3CO)O[C@@H]2CO)[C@H](O)[C@@H](O)[C@H]1O (stereo partly drawn) [globotriose, galactose α1,4 galactose β1,4 glucose]
[1]
  inhibition of cell death from SLT II: 8%
[2]
  inhibition of cell death from SLT I: 52%
  reduction of cytotoxicity (SLT I), toxin pre-attached: 33%
[3]; IV administered
  clearance kinetics: bi-exponential clearance kinetics
  time over which excreted through the kidneys: > 24 h
[3]; orally administered
  bioavailable (oral dose crossed into circulation): approximately 10%
  excreted in the urine, time post-dose: up to 48 hours
  fate of the majority of orally administered dose: excreted into the feces unmetabolized
  kinetics: bi-exponential kinetics
[4]; intravenously 333 mg/kg
  toxic effects after intravenous administration: no toxic effects
[4]; orally 3333 mg/kg
  toxic effects after oral administration: no toxic effects
